This note sets out measurements from patent US20200239530A1, “COMPOUNDS AND METHODS OF MODULATING PROTEIN DEGRADATION” (Vividion Therapeutics, Inc., priority 2017, published 2020).

Holding throughout (assay): Cysteine liganding, probe competition
Holding throughout (type): binding

Assay [1] concerns the target T1, CDK18 Cyclin-dependent kinase 18 (Homo sapiens, UniProt Q07002).
T1 construct: 200 μL of lysate containing 5 mg/ml proteome was treated with 2 μL of 100× compound stock; endogenous in cells
The following applies: for Liganded: CDK18 Res# 183, uniprot Q07002. The method in brief: (§1)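 Read-out is loss of desthiobiotin iodoacetamide labelling at cysteines, measured on streptavidin-enriched tryptic peptides. Compound preincubation ran 1 hr at 25° C in PBS lysate holding 5 mg/ml proteome before the probe was added.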

Assay [2] addresses T2, MT-ND5 NADH-ubiquinone oxidoreductase chain 5 (Homo sapiens, UniProt P03915).
T2 construct: Cells were resuspended in cold PBS on ice and sonicated with a probe sonicator to achieve lysis; endogenous in cells
The following applies: for Liganded: MT-ND5 Res# 518, uniprot P03915. The procedure, abridged:
as §1

Assay [3] concerns the target T3, ZNF644 Zinc finger protein 644 (Homo sapiens, UniProt Q9H582).
T3 construct: Cells were resuspended in cold PBS on ice and sonicated with a probe sonicator to achieve lysis; endogenous in cells
T3 sequence (Q9H582 1-1327): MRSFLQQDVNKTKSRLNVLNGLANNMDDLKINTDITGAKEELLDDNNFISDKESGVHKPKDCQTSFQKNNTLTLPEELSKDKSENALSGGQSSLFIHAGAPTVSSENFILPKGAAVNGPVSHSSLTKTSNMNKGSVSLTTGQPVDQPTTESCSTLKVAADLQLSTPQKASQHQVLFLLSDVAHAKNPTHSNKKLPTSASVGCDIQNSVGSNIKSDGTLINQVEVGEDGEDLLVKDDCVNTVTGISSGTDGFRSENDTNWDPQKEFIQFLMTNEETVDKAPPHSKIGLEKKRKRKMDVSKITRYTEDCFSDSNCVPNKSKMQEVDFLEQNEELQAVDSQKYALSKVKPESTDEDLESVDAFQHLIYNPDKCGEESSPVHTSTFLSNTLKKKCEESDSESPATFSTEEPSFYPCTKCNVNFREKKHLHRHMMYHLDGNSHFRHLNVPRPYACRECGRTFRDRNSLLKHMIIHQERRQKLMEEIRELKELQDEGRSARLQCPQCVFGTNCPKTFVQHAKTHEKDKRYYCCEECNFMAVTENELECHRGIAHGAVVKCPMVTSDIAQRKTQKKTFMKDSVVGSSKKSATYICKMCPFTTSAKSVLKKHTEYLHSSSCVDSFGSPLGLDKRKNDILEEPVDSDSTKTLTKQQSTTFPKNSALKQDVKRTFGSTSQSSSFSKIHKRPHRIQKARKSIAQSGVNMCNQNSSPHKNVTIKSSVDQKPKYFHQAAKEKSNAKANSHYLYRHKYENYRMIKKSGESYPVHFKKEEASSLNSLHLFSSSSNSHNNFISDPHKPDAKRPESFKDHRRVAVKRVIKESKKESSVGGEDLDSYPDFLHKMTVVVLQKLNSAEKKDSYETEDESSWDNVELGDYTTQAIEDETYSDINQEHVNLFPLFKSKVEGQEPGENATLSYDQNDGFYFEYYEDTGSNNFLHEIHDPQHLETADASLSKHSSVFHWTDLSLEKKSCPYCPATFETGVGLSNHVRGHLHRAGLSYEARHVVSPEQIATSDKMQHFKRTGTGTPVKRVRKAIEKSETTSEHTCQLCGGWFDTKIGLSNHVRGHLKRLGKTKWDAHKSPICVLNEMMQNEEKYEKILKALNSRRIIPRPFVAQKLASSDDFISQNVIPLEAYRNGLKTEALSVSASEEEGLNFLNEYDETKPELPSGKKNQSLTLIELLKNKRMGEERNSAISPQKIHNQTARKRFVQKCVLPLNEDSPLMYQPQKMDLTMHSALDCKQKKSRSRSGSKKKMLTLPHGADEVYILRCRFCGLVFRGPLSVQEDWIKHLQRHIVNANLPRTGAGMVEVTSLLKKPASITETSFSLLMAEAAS
The method in brief:
as §1

T1 sequence (Q07002 whole entry): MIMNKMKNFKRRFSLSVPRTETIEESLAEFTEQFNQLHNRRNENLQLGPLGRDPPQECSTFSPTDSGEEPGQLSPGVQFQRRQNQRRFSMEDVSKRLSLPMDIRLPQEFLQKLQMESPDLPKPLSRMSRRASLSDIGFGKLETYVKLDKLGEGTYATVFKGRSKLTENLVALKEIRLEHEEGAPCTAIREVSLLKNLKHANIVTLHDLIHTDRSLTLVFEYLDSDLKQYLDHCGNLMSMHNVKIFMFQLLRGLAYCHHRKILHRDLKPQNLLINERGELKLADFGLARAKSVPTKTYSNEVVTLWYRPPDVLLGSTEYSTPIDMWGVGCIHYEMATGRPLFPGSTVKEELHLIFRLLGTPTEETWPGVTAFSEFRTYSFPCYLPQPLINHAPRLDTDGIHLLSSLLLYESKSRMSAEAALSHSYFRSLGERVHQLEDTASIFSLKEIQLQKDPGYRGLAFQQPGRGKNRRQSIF
T2 sequence (P03915 whole entry): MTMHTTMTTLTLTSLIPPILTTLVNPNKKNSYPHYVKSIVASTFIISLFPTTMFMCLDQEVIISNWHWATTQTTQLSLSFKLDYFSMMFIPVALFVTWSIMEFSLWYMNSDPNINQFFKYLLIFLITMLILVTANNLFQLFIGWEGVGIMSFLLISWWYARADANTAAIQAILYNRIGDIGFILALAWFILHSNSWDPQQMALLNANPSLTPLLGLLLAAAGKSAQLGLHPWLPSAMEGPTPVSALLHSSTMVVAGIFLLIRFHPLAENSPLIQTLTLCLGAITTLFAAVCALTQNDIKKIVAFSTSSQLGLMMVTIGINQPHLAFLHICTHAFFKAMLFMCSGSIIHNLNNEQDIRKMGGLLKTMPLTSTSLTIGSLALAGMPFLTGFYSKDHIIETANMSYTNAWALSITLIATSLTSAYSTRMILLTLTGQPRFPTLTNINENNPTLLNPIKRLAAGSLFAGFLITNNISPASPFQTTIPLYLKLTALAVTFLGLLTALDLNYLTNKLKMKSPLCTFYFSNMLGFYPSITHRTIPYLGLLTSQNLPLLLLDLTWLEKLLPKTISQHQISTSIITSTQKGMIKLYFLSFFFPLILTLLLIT

Turning to `COc1ccc2c(c1)CCCN2C(=O)CCl` [KB02], the Liganded result is “YES” in assay [1]; “YES” in assay [2]; “YES” in assay [3] (ZNF644 Res# 507, uniprot Q9H582).

In the case of `O=C(CCl)Nc1cc(C(F)(F)F)cc(C(F)(F)F)c1` [KBO3], the Liganded result in assay [1] and in assay [2] was “YES” throughout. Besides, the “100 Max” value in assay [1] (uniprot Q07002) is reported as 50.67; in assay [2] (uniprot P03915, in % (unit assumed)), 83.61; in assay [3] (uniprot Q9H582), 24.53. Moreover, the 100 ave in assay [1] (uniprot Q07002) was determined as 28.2075; in assay [2] (uniprot P03915) it was 83.61; in assay [3] (uniprot Q9H582), 11.2825. Also, the “500 Max” value in assay [1] (uniprot Q07002) stood at 80.44; in assay [3] (uniprot Q9H582, in % (unit assumed)), 72.77. Also, the 500 ave in assay [1] (uniprot Q07002) was 79.225; in assay [3] (uniprot Q9H582), 67.685.
